According to patent US7893074B2, “2, 4-pyrimidinediamines useful in the treatment of neoplastic diseases, inflammatory and immune system disorders” (Novartis AG, priority 2003, dated 2011):
Where two headings read alike, the source gives them in different places.

Legend:
[1] = test system: Mouse mammary carcinoma 4T1 cells; assay: Anchorage-independent tumor cell growth assay; type: cell-based
Procedure: Cells are cultured for 2 h and inhibitors are added at various concentrations in a final concentration of 0.1% DMSO. After 48 h, cell growth is assayed with the cell counting kit-8 (Wako Pure Chemical), which uses a water soluble tetrazolium salt WST8. Twenty μL of the reagent is added into each well and cells are further cultured for 2 h. The optical density is measured at 450 nm.

[2] = target: Focal Adhesion Kinase (FAK) (Homo sapiens, UniProt Q05397); assay: FAK assay system (Focal Adhesion Kinase inhibition); type: biochemical; conditions: read-out: FAK IC50
FAK = FAK (Mus musculus, UniProt P34152); assay: Phos IC50 (phosphorylation); type: cell-based
Chain of FAK (P34152 2-1052): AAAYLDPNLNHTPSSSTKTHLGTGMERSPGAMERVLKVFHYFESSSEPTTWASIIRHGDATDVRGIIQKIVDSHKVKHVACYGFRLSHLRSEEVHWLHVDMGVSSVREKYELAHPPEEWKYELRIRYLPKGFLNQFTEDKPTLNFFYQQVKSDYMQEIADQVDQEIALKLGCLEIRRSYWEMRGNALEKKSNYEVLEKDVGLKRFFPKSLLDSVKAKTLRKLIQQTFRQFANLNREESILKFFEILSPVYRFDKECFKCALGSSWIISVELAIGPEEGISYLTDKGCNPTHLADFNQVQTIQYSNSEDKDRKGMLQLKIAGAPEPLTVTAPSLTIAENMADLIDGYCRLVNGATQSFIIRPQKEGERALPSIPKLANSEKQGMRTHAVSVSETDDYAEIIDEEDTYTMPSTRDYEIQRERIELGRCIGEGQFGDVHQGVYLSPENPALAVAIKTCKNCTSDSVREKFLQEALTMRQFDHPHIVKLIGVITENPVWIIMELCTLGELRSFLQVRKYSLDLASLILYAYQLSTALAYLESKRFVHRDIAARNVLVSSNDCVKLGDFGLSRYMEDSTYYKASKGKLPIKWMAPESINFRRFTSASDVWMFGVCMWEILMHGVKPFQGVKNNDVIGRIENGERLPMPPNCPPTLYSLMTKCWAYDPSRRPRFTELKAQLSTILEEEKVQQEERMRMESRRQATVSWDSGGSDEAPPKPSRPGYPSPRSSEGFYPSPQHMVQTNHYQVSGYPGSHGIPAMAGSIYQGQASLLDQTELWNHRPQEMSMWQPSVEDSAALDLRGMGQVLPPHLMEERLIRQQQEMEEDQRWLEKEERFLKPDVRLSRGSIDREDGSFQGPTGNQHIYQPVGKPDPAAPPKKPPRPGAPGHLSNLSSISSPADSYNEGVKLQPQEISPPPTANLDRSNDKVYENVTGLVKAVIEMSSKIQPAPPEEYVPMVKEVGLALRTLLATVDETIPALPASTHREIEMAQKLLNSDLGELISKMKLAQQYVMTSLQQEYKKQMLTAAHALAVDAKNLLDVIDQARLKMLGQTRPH

Chain of Focal Adhesion Kinase (FAK) (Q05397 384-706): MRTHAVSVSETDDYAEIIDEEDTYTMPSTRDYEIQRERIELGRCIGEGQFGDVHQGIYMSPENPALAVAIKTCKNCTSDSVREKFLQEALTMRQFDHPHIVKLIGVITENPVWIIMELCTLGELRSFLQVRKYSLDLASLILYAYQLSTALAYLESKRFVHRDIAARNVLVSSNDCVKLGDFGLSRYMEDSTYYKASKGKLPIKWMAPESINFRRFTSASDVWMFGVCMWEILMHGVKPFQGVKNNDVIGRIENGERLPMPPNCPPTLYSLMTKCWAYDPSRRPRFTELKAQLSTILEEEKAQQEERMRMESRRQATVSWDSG

| IC50 ([1]; Mus musculus, 4T1) | IC50 [2] | IC50 (FAK) | IC50 [1] | Structure (SMILES) |
| --- | --- | --- | --- | --- |
| 680 nM | 26 nM | 3000 nM | – | CNS(=O)(=O)c1ccccc1Nc1nc(Nc2cc(OCCN3CCOCC3)ccc2OC)ncc1Cl [Example 20-21] |
| 190 nM | 8 nM | > 10000 nM | – | CNS(=O)(=O)c1ccccc1Nc1nc(Nc2cc(OCCN3CCN(C)CC3)ccc2OC)ncc1Cl [Example 20-22] |
| 3000 nM | 30 nM | 490 nM | – | CNS(=O)(=O)c1ccccc1Nc1nc(Nc2cc(F)ccc2OC)ncc1Cl [Example 20-23] |
| 2000 nM | 19 nM | 480 nM | – | CNS(=O)(=O)c1ccccc1Nc1nc(Nc2ccc(F)cc2OC)ncc1Cl [Example 20-24] |
| 60 nM | 6.2 nM | 210 nM | – | CNS(=O)(=O)c1ccccc1Nc1nc(Nc2ccc(OCC3CCN(C)CC3)cc2OC)ncc1Cl [Example 20-25] |
| 270 nM | 5.3 nM | 760 nM | – | CNS(=O)(=O)c1ccccc1Nc1nc(Nc2cc(OCC3CCN(C)CC3)ccc2OC)ncc1Cl [Example 20-26] |
| 120 nM | 13 nM | 1000 nM | – | CNS(=O)(=O)c1ccccc1Nc1nc(Nc2cc(N3CCN(C(C)=O)CC3)ccc2OC)ncc1Cl [Example 20-34] |
| – | 1 nM | 70 nM | 190 nM | CCC(C)NS(=O)(=O)c1ccccc1Nc1nc(Nc2ccc(N3CCN(C)CC3)cc2OC)ncc1Cl (stereo not drawn) [Example 21-1] |
| > 10000 nM | 8.5 nM | 330 nM | – | CCC(C)NS(=O)(=O)c1ccccc1Nc1nc(Nc2ccc(F)cc2OC)ncc1Cl (stereo not drawn) [Example 21-2] |
| 300 nM | 1.7 nM | 300 nM | – | CCC(C)NS(=O)(=O)c1ccccc1Nc1nc(Nc2ccc(OC3CCN(C)CC3)cc2OC)ncc1Cl (stereo not drawn) [Example 21-3] |
| 300 nM | 1.8 nM | 50 nM | – | CCC(C)NS(=O)(=O)c1ccccc1Nc1nc(Nc2ccc(OCCN3CCOCC3)cc2OC)ncc1Cl (stereo not drawn) [Example 21-4] |
| > 10000 nM | 43 nM | > 10000 nM | – | COc1ccc(F)cc1Nc1ncc(Cl)c(Nc2ccccc2S(=O)(=O)NCC(C)C)n1 [Example 22-1] |
| 3000 nM | 26 nM | 1000 nM | – | COc1cc(F)ccc1Nc1ncc(Cl)c(Nc2ccccc2S(=O)(=O)NCC(C)C)n1 [Example 22-2] |
| 590 nM | 1.9 nM | > 10000 nM | – | CCC(CC)NS(=O)(=O)c1ccccc1Nc1nc(Nc2ccc(OCC3CCCN(C)C3)cc2OC)ncc1Cl (stereo not drawn) [Example 23-5] |
| 570 nM | 16 nM | 1000 nM | – | CCC(CC)NS(=O)(=O)c1ccccc1Nc1nc(Nc2ccc(N3CCOCC3)cc2OC)ncc1Cl [Example 23-6] |
| 490 nM | 6.7 nM | 300 nM | – | CCC(CC)NS(=O)(=O)c1ccccc1Nc1nc(Nc2ccc(OCCN3CCOCC3)cc2OC)ncc1Cl [Example 23-8] |
| 280 nM | 2.1 nM | 200 nM | – | CCC(CC)NS(=O)(=O)c1ccccc1Nc1nc(Nc2ccc(OCCN3CCN(C)CC3)cc2OC)ncc1Cl [Example 23-9] |
| 1080 nM | 1 nM | 300 nM | – | COc1cc(N2CCC(NC(C)=O)C2)ccc1Nc1ncc(Cl)c(Nc2ccccc2S(=O)(=O)NC2CCC2)n1 (stereo not drawn) [Example 24-3] |
| 950 nM | 11 nM | 500 nM | – | CCCS(=O)(=O)c1ccccc1Nc1nc(Nc2ccc(N3CC(C)N(C(C)=O)C(C)C3)cc2OC)ncc1Cl (stereo not drawn) [Example 26-7] |
| 180 nM | 2.9 nM | 10 nM | – | CCCS(=O)(=O)c1ccccc1Nc1nc(Nc2ccc(N3CCN(C(=O)CC)CC3)cc2OC)ncc1Cl [Example 26-8] |

| IC50 ([1]; Mus musculus, 4T1) | IC50 [2] | IC50 (FAK) | IC50 [1] | Structure (SMILES) |
| --- | --- | --- | --- | --- |
| 220 nM | 2.3 nM | 40 nM | – | CCCS(=O)(=O)c1ccccc1Nc1nc(Nc2ccc(N3CCN(C(=O)C(C)C)CC3)cc2OC)ncc1Cl [Example 26-9] |
| 190 nM | 3.7 nM | 200 nM | – | CCCS(=O)(=O)c1ccccc1Nc1nc(Nc2ccc(N3CCC[C@H](C(N)=O)C3)cc2OC)ncc1Cl [Example 26-12] |
| 440 nM | 1.6 nM | 200 nM | – | CCCS(=O)(=O)c1ccccc1Nc1nc(Nc2ccc(N3CCC[C@@H](C(N)=O)C3)cc2OC)ncc1Cl [Example 26-13] |
| 2000 nM | 9 nM | 320 nM | – | CCCS(=O)(=O)c1ccccc1Nc1nc(Nc2ccc(NCCN3CCOCC3)cc2OC)ncc1Cl [Example 26-16] |
| – | 1.3 nM | 6000 nM | 1170 nM | CCCS(=O)(=O)c1ccccc1Nc1nc(Nc2ccc(OCCN3CCCC3=O)cc2OC)ncc1Cl [Example 26-18] |
| 790 nM | 9.2 nM | 430 nM | – | CCCS(=O)(=O)c1ccccc1Nc1nc(Nc2ccc(C(=O)N3CCN(C(C)=O)CC3)cc2OC)ncc1Cl [Example 26-19] |
| – | < 1 nM | 100 nM | 280 nM | CCCS(=O)(=O)c1ccccc1Nc1nc(Nc2ccc(N3CCNC(=O)C3)cc2OC)ncc1Cl [Example 26-22] |
| – | < 1 nM | 600 nM | 730 nM | CCCS(=O)(=O)c1ccccc1Nc1nc(Nc2ccc(N3CCC(NC)C3)cc2OC)ncc1Cl (stereo not drawn) [Example 26-25] |
| – | 4.8 nM | 600 nM | 1490 nM | CCCS(=O)(=O)c1ccccc1Nc1nc(Nc2ccc(N3CCC(CO)CC3)cc2OC)ncc1Cl [Example 26-27] |
| – | 2.1 nM | 500 nM | 1520 nM | CCCS(=O)(=O)c1ccccc1Nc1nc(Nc2ccc(N3CCC(O)C3)cc2OC)ncc1Cl (stereo not drawn) [Example 26-28] |
| 260 nM | < 1 nM | 310 nM | – | CCCS(=O)(=O)c1ccccc1Nc1nc(Nc2ccc(N3CCC(N4CCCC4)CC3)cc2OC)ncc1Cl [Example 26-29] |
| 760 nM | 4.4 nM | 1000 nM | – | CCCS(=O)(=O)c1ccccc1Nc1nc(Nc2ccc(F)cc2OC)ncc1Cl [Example 26-30] |
| 470 nM | 14 nM | 60 nM | – | CCS(=O)(=O)c1ccccc1Nc1nc(Nc2ccc(N3CCOCC3)cc2OC)ncc1Cl [Example 27-1] |
| 1100 nM | 5.1 nM | 500 nM | – | CCS(=O)(=O)c1ccccc1Nc1nc(Nc2ccc(N3CCC(N4CCCCC4)CC3)cc2OC)ncc1Cl [Example 27-2] |
| 560 nM | 6.3 nM | > 10000 nM | – | CCS(=O)(=O)c1ccccc1Nc1nc(Nc2ccc(-n3cncn3)cc2OC)ncc1Cl [Example 27-3] |
| 270 nM | 11 nM | 100 nM | – | CCS(=O)(=O)c1ccccc1Nc1nc(Nc2ccc(N3CCC(N4CCOCC4)CC3)cc2OC)ncc1Cl [Example 27-4] |
| 300 nM | 8.2 nM | 40 nM | – | CCS(=O)(=O)c1ccccc1Nc1nc(Nc2ccc(N3CCN(C(C)=O)CC3)cc2OC)ncc1Cl [Example 27-5] |
| 310 nM | 1 nM | 80 nM | – | CCS(=O)(=O)c1ccccc1Nc1nc(Nc2ccc(N3CCCC(C(N)=O)C3)cc2OC)ncc1Cl (stereo not drawn) [Example 27-6] |
| 570 nM | 5.5 nM | 2000 nM | – | CCS(=O)(=O)c1ccccc1Nc1nc(Nc2ccc(CN3CCN(C)CC3)cc2OC)ncc1Cl [Example 27-7] |
